Test results from article PMC6904209 (Methods in enzymology, 2017).
Like-named read-outs stand apart in the source and are kept apart here.

Experiments:
Human recombinant SCP-2 [1] = target: T1, Human recombinant SCP-2 (Homo sapiens, UniProt P22307); assay: NBDS displacement assay; format: binding; settings: for Max % Displacement: displacement of SCP-2 (500 nM)-bound NBDS (500 nM), 24°C, 10 mM phosphate buffer pH 7.4, n=4
T1 sequence (P22307 1-143 isoform P22307-2): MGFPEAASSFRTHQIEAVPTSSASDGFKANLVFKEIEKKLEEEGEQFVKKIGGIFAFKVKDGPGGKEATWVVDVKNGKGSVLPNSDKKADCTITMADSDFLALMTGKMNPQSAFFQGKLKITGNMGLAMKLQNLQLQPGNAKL

Human recombinant SCP-2 [2] = target: T1, Human recombinant SCP-2; assay: Reverse and forward titrations of NBDS with SCP-2; format: binding; settings: forward titration, SCP-2 500 nM, NBDS 0–1.8 μM
[3] = Ki = (Kd,NBDS × EC50)/[NBDS]total, NBDS 0.5 μM
[4] = Ki, Ki = (Kd,NBDS × EC50)/[NBDS]total, NBDS 0.5 μM

Row | SMILES | Ki (Human recombinant SCP-2 [1]; [3]) [µM] | Max % Displacement (Human recombinant SCP-2 [1]) [%] | other results
1 | CCCCC/C=C\C/C=C\C/C=C\C/C=C\CCCC(=O)NCCO [Compound 1, N-arachidonoylethanolamine] | 0.68 ± 0.05 | 59.3 ± 1.2 | 
2 | CCCCC/C=C\C/C=C\C/C=C\C/C=C\CCCC(=O)OC(CO)CO [Compound 2, 2-arachidonoylglycerol] |  | 55.1 ± 1.0 | EC50 (Human recombinant SCP-2 [1]): 0.84 ± 0.04 µM; Ki (Human recombinant SCP-2 [1]; [4]): 0.37 ± 0.02 µM
3 | CCCCC/C=C\C/C=C\C/C=C\C/C=C\CCCC(=O)OCC(O)CO (stereo not shown) [Compound 3, 1-arachidonoyl glycerol] |  | 57.7 ± 0.7 | EC50 (Human recombinant SCP-2 [1]): 1.87 ± 0.05 µM; Ki (Human recombinant SCP-2 [1]; [4]): 0.82 ± 0.02 µM
4 | CCCCC/C=C\C/C=C\C/C=C\C/C=C\CCCC(=O)NC(CO)CO [Compound 4, N-arachidonoyl serinol] | 2.95 ± 0.12 | 69.2 ± 1.7 | fold reduction in potency compared to 2 (Human recombinant SCP-2 [1]; NBDS displacement, versus 2-AG (2)): 8 fold
5 | CCCCC/C=C\C/C=C\C/C=C\C/C=C\CCCC(=O)NCCF [Compound 5, arachidonoyl-2’-fluoroethylamide] | 2.78 ± 0.21 | 64.4 ± 2.2 | 
6 | CCCCC/C=C\C/C=C\C/C=C\C/C=C\CCCC(=O)OCCN [Compound 6, O-arachidonoylethanolamine] | 1.6 ± 0.02 | 94.7 ± 1.6 | 
7 | CCCCC/C=C\C/C=C\C/C=C\C/C=C\CCCC(=O)NCC(=O)O [Compound 7, N-arachidonoyl glycine] | 1.22 ± 0.03 | 82.0 ± 0.8 | 
8 | CCCCC/C=C\C/C=C\C/C=C\C/C=C\CCCC(=O)NCCc1c[nH]c2ccc(O)cc12 [Compound 8, N-arachidonoyl serotonin] | 1.46 ± 0.02 | 84.8 ± 0.8 | 
9 | CCCCC/C=C\C/C=C\C/C=C\C/C=C\CCCC(=O)NCCc1ccc(O)c(O)c1 [Compound 9, N-arachidonoyl dopamine] | 1.12 ± 0.02 | 94.9 ± 0.1 | 
10 | CCCCC/C=C\C/C=C\C/C=C\C/C=C\CCCC(=O)Nc1ccc(O)cc1 [Compound 10, N-arachidonoyl-p-aminophenol] | 1.41 ± 0.03 | 89.2 ± 0.8 | Max % Displacement (Human recombinant SCP-2 [1]; listed as AM404): 89%
11 | CCCCC/C=C\C/C=C\C/C=C\C/C=C\CCCC(N)=O [Compound 11, Arachidonoyl amide] | 1.8 ± 0.1 | 71.1 ± 1.3 | 
12 | CCCCCCCC/C=C\CCCCCCCC(N)=O [Compound 12, Oleamide] |  | 68.3 ± 1.7 | EC50 (Human recombinant SCP-2 [1]): 13.1 ± 2.3 µM; Ki (Human recombinant SCP-2 [1]): 5.8 ± 1 µM
13 | CC/C=C\C/C=C\C/C=C\C/C=C\C/C=C\C/C=C\CCC(=O)NCCO [Compound 13, docosahexaenoyl ethanolamide] | 1.91 ± 0.04 | 73.9 ± 1.3 | 
14 | CC(=O)Nc1ccc(Nc2nc(-c3ccc(Cl)c(Cl)c3)cs2)cc1 [Compound 14] | 1 ± 0.1 | 96.6 ± 0.7 | 
15 | CCCCCCC(CCCCCCCCCCC(=O)O)N(C)c1ccc([N+](=O)[O-])c2nonc12 (stereo not shown) [NBDS, 12-N-methyl-(7-nitrobenz-2-oxa-1,3-diazo)aminostearic acid] |  |  | Bmax (Human recombinant SCP-2 [2]): 0.89 ± 0.04 binding sites per molecule of SCP-2
